Test [1] deals with ROR gamma ligand binding domain (Homo sapiens (Human), UniProt P51449). Description: ROR gamma luciferase reporter assay (GAL4-ROR gamma LBD, HEK293 cells). Format: cell-based. Conditions: 48 hours treatment, read-out: RORγ luciferase Reporter assay: IC50 (nM) (in range). The procedure: The Ligand Binding Domain (LBD) of ROR gamma was cloned into pFN26A (BIND) hRluc-neo Flexi vector (Promega) which expresses a fusion protein comprised of a DNA binding domain of the yeast GAL4 gene, a linker segment and ROR gamma ligand binding domain. For the reporter assay 0.02×10^6 HEK293 cells were seeded per well in a 96 well plate in complete media and incubated overnight in an incubator with 5% CO2 at 37° C. before transfection. Cells were then co-transfected with pFN26A hRluc-neo Flexi vector containing the LBD of ROR gamma and pGL4.35 [luc2P/9XGAL4 UAS/Hygro] Vector (Promega) in low serum media. Post transfection and recovery, cells were treated with the test compounds for 48 hours. The assay was terminated using the Bright-Glo Luciferase assay system from Promega and the Luminescence was measured using a luminescence reader. The luminescence values were used to calculate the potency of the compounds.
ROR gamma ligand binding domain, sequence (P51449 269-508): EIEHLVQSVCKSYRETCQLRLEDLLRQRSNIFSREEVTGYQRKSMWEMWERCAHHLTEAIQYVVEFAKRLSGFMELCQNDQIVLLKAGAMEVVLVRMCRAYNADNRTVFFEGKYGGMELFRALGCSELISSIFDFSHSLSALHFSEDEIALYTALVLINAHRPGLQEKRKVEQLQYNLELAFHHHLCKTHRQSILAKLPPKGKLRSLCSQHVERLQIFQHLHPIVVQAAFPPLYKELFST
(Reporter assays use an easily measured gene product as a stand-in for the process of interest.)

The target in a further test is RORγ LBD (Homo sapiens (Human), UniProt P51449). In words: ROR gamma radio-ligand binding assay (3H 25-Hydroxycholesterol competitive displacement, dextran charcoal method). Conditions: for inhibition at 1 µM / RORγ ligand binding assay: % inhibition @1 μM: 1 μM compound; for inhibition at 10 µM / RORγ ligand binding assay: % inhibition @ 10 μM: 10 μM compound; for IC50: in range. Here is the method: Gene corresponding to the ligand binding domain of RORγ (247-497 amino acids) was sub-cloned into pGEX4T1 vector. Transformants of E. coli BL21 (DE3) containing pGEX4T1-RORγ (247-497) were grown to an OD of 0.8 at 37° C. and induced with 0.5 mM isopropyl-β-D-thiogalactopyranoside (IPTG) for 18 hours at 18° C. Cells were harvested and resuspended in 20 mM Tris-HCl (pH 8.5), 0.3 M NaCl, 10% Glycerol, 2 mM β-Me (β-Mercaptoethanol), 2 mM CHAPS, protease inhibitors, 0.6 mM PMSF and Lysozyme. Supernatant of lysate was passed through glutathione sepharose 4B affinity beads (GE health care) pre-equilibrated with 20 mM Tris-HCl (pH 8.5), 0.3 M NaCl, 10% Glycerol, 2 mM β-Me. RORγ was eluted using a gradient of reduced glutathione (3-20 mM). Fractions containing RORγ protein were pooled, concentrated and passed through Superdex 75 gel filtration (GE health care) column equilibrated with 20 mM Na-phosphate pH 8.0, 0.2 M NaCl, 10% glycerol. The peak fractions from gel filtration column were pooled and stored at −80° C. for Binding assay.
RORγ LBD, sequence (P51449 268-518): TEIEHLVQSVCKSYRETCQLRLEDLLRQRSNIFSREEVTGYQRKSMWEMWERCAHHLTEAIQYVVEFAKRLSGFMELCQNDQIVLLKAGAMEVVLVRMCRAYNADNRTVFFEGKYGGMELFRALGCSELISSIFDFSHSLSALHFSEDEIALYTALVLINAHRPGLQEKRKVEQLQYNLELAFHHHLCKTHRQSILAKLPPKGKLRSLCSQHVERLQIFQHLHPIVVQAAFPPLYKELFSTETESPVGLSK
ROR gamma radioligand binding was performed using ^3H 25-Hydroxycholesterol in a competitive displacement assay using dextran charcoal method. Using 5 nM ^3H 25-Hydroxycholesterol with 300 ng RORγ LBD (in house expressed in E. coli) along with the compound were incubated in the binding buffer (50 mM HEPES, pH 7.5, 150 mM NaCl, 0.01% BSA and 5 mM MgCl2) for 30 min at room temperature. Then dextran-charcoal mixture (0.5% charcoal: 0.05% dextran) was used for separation and the supernatant was read on the Perkin Elmer Trilux Microbeta counter. Dose response curves were generated for 10 compound concentrations using GraphPad Prism software Version 5 (San Diego, Calif., USA) using non-linear regression curve fit for sigmoidal dose response (variable slope).

These results are taken from patent publication US11229636B2, “Substituted tetrahydroquinolinone compounds as ROR gamma modulators” (Aurigene Discovery Technologies Limited, priority 2015, dated 2022).

Bounds are passed on as bounds.

On to `CCS(=O)(=O)c1ccc(CC(=O)Nc2cc(C)c3c(n2)CCC(C)(c2ccc(OC)nc2)C3=O)cc1` (stereo not drawn) [Compound 17, 2-(4-(ethylsulfonyl)phenyl)-N-(6-(6-methoxypyridin-3-yl)-4,6-dimethyl-5-oxo-5,6,7,8-tetrahydroquinolin-2-yl)acetamide], for which, in test [1], the IC50 is under 100 nM. At RORγ LBD, this molecule returned an inhibition at 1 µM of 92% and an inhibition at 10 µM of 96%.

Take `CCS(=O)(=O)c1ccc(CC(=O)Nc2ccc3c(n2)CCC(C)(c2ncc(Cl)n4ccnc24)C3=O)cc1` (stereo not drawn) [Compound 92, N-(6-(5-chloroimidazo[1,2-a]pyrazin-8-yl)-6-methyl-5-oxo-5,6,7,8-tetrahydroquinolin-2-yl)-2-(4-(ethylsulfonyl)phenyl)acetamide]: in test [1], the IC50 was 100 to 500 nM. At RORγ LBD, this molecule displayed an inhibition at 1 µM of 96%, an inhibition at 10 µM of 80% and an IC50 of under 150 nM.

Regarding `CCS(=O)(=O)c1ccc(CC(=O)Nc2ccc3c(n2)CCC(C)(c2ccnc(C(C)C)n2)C3=O)cc1` (stereo not drawn) [Compound 50, 2-(4-(ethylsulfonyl)phenyl)-N-(6-(2-isopropylpyrimidin-4-yl)-6-methyl-5-oxo-5,6,7,8-tetrahydroquinolin-2-yl)acetamide], the IC50 in test [1] fell in the range of 100 to 500 nM. Also, at RORγ LBD, at 1 µM the inhibition was 91%, 10 µM produced 90% inhibition and the concentration for half-maximal inhibition (IC50) was under 150 nM.

`CCS(=O)(=O)c1ccc(CC(=O)Nc2ccc3c(n2)CCC(C)(c2nc(C)cn4ccnc24)C3=O)cc1` (stereo not drawn) [Compound 16, 2-(4-(ethylsulfonyl)phenyl)-N-(6-methyl-6-(6-methylimidazo[1,2-a]pyrazin-8-yl)-5-oxo-5,6,7,8-tetrahydroquinolin-2-yl)acetamide]: in test [1], the IC50 was under 100 nM. At RORγ LBD, this molecule displayed an inhibition at 1 µM of 86%, an inhibition at 10 µM of 93% and an IC50 of 150 to 300 nM.

Take `CCS(=O)(=O)c1ccc(CC(=O)Nc2ccc3c(n2)CCC(C)(c2nccn4c(C)cnc24)C3=O)cc1` (stereo not drawn) [Compound 49, 2-(4-(ethylsulfonyl)phenyl)-N-(6-methyl-6-(3-methylimidazo[1,2-a]pyrazin-8-yl)-5-oxo-5,6,7,8-tetrahydroquinolin-2-yl)acetamide]: in test [1], the IC50 was in the range of 100 to 500 nM. On RORγ LBD, this molecule registered an inhibition at 1 µM of 93%, an inhibition at 10 µM of 82% and an IC50 of 150 to 300 nM.

Turning to `CCS(=O)(=O)c1ccc(CC(=O)Nc2cc(C)c3c(n2)CCC(C)(c2nc(C)cc(C)n2)C3=O)cc1` (stereo not drawn) [Compound 29, N-(6-(4,6-dimethylpyrimidin-2-yl)-4,6-dimethyl-5-oxo-5,6,7,8-tetrahydroquinolin-2-yl)-2-(4-(ethylsulfonyl)phenyl)acetamide], the IC50 in test [1] was under 100 nM. In addition, at RORγ LBD, the inhibition at 1 µM was determined as 84%, the inhibition at 10 µM was 91% and the IC50 was 150 to 300 nM.

Consider `CCS(=O)(=O)c1ccc(CC(=O)Nc2ccc3c(n2)CCC(C)(c2nccn4cc(C)nc24)C3=O)cc1` (single isomer, unassigned) [compound 106, 2-(4-(ethylsulfonyl)phenyl)-N-(6-methyl-6-(2-methylimidazo[1,2-a]pyrazin-8-yl)-5-oxo-5,6,7,8-tetrahydroquinolin-2-yl)acetamide], for which the IC50 in test [1] is over 500 nM. At RORγ LBD, the “RORγ ligand binding assay: % inhibition @1 μM” value came to 70% and the “RORγ ligand binding assay: % inhibition @ 10 μM” value is given as 1%.

Turning to `CCS(=O)(=O)c1ccc(CC(=O)Nc2ccc3c(n2)CCC(C)(c2nccn4cc(C)nc24)C3=O)cc1` (stereo not drawn) [Compound 9, 2-(4-(ethylsulfonyl)phenyl)-N-(6-methyl-6-(2-methylimidazo[1,2-a]pyrazin-8-yl)-5-oxo-5,6,7,8-tetrahydroquinolin-2-yl)acetamide], the IC50 in test [1] fell in the range of 100 to 500 nM. Besides, at RORγ LBD, the inhibition at 1 µM came to 90%, the inhibition at 10 µM amounted to 100% and the IC50 was under 150 nM.

In the case of `COc1ccc(C2(C)CCc3nc(NC(=O)Cc4ccc(S(C)(=O)=O)cc4)cc(C)c3C2=O)nn1` (stereo not drawn) [Compound 35, N-(6-(6-methoxypyridazin-3-yl)-4,6-dimethyl-5-oxo-5,6,7,8-tetrahydroquinolin-2-yl)-2-(4-(methylsulfonyl)phenyl)acetamide], the IC50 in test [1] is 100 to 500 nM. On RORγ LBD, the inhibition at 1 µM was determined as 80%, the inhibition at 10 µM turned out to be 98% and the IC50 lay within 150 to 300 nM.

For the molecule `Cc1cc(NC(=O)Cc2ccc(S(C)(=O)=O)cc2)nc2c1C(=O)C(C)(c1ncccc1O)CC2` (stereo not drawn) [Compound 89, N-(6-(3-hydroxypyridin-2-yl)-4,6-dimethyl-5-oxo-5,6,7,8-tetrahydroquinolin-2-yl)-2-(4-(methylsulfonyl)phenyl)acetamide], the IC50 in test [1] is over 500 nM. On RORγ LBD, this molecule gave an inhibition at 1 µM of 53%, an inhibition at 10 µM of 79% and an IC50 of over 300 nM.

Turning to `CCS(=O)(=O)c1ccc(CC(=O)Nc2ccc3c(n2)CCC(C)(c2nccn4ccnc24)C3=O)cc1` (stereo not drawn) [Compound 6, 2-(4-(ethylsulfonyl)phenyl)-N-(6-(imidazo[1,2-a]pyrazin-8-yl)-6-methyl-5-oxo-5,6,7,8-tetrahydroquinolin-2-yl)acetamide], in test [1], the IC50 lay within 100 to 500 nM. Besides, on RORγ LBD, the inhibition at 1 µM is 72%, 10 µM produced 96% inhibition and the IC50 lay in the range of 150 to 300 nM.

`CCS(=O)(=O)c1ccc(CC(=O)Nc2ccc3c(n2)CCC(C)(c2ncc(OC)cn2)C3=O)cc1` (stereo not drawn) [Compound 56, 2-(4-(ethylsulfonyl)phenyl)-N-(6-(5-methoxypyrimidin-2-yl)-6-methyl-5-oxo-5,6,7,8-tetrahydroquinolin-2-yl)acetamide]: the half-maximal inhibitory concentration (IC50) in test [1] was under 100 nM. At RORγ LBD, this molecule came in with an inhibition at 1 µM of 96%, an inhibition at 10 µM of 94% and an IC50 of under 150 nM.

For `CCS(=O)(=O)c1ccc(CC(=O)Nc2cc(C)c3c(n2)CCC(C)(c2ccc(O)cn2)C3=O)cc1` (stereo not drawn) [Compound 88, 2-(4-(ethylsulfonyl)phenyl)-N-(6-(5-hydroxypyridin-2-yl)-4,6-dimethyl-5-oxo-5,6,7,8-tetrahydroquinolin-2-yl)acetamide], the IC50 in test [1] was over 500 nM. On RORγ LBD, this molecule registered an inhibition at 1 µM of 86%, an inhibition at 10 µM of 90% and an IC50 of 150 to 300 nM.

For the molecule `CCS(=O)(=O)c1ccc(CC(=O)Nc2nc3c(cc2C)C(=O)C(C)(c2nccn4ccnc24)CC3)cc1` (stereo not drawn) [Compound 11, 2-(4-(ethylsulfonyl)phenyl)-N-(6-(imidazo[1,2-a]pyrazin-8-yl)-3,6-dimethyl-5-oxo-5,6,7,8-tetrahydroquinolin-2-yl)acetamide], in test [1], the IC50 is over 500 nM. On RORγ LBD, the inhibition at 1 µM was 25% and the inhibition at 10 µM turned out to be 71%.

For the molecule `CCS(=O)(=O)c1ccc(CC(=O)Nc2cc(C)c3c(n2)CCC(C)(c2ccc(OC)nn2)C3=O)cc1` (single isomer, unassigned) [compound 109, 2-(4-(ethylsulfonyl)phenyl)-N-(6-(6-methoxypyridazin-3-yl)-4,6-dimethyl-5-oxo-5,6,7,8-tetrahydroquinolin-2-yl)acetamide], in test [1], the IC50 was over 500 nM. For the same molecule, on RORγ LBD, at 1 µM the inhibition was 91% and the “RORγ ligand binding assay: % inhibition @ 10 μM” value is reported as 36%.

For `CCS(=O)(=O)c1ccc(CC(=O)Nc2cc(C)c3c(n2)CCC(C)(c2cc(C)nc(C)n2)C3=O)cc1` (single isomer, unassigned) [compound 107, N-(6-(2,6-dimethylpyrimidin-4-yl)-4,6-dimethyl-5-oxo-5,6,7,8-tetrahydroquinolin-2-yl)-2-(4-(ethylsulfonyl)phenyl)acetamide], the IC50 in test [1] was in the range of 100 to 500 nM. On RORγ LBD, the inhibition at 1 µM came out at 91%, the “RORγ ligand binding assay: % inhibition @ 10 μM” value came out at 90% and the IC50 is under 150 nM.

Turning to `CCS(=O)(=O)c1ccc(CC(=O)Nc2ccc3c(n2)CCC(C)(c2cc(C)nc(C)n2)C3=O)cc1` (single isomer, unassigned) [compound 103, N-(6-(2,6-dimethylpyrimidin-4-yl)-6-methyl-5-oxo-5,6,7,8-tetrahydroquinolin-2-yl)-2-(4-(ethylsulfonyl)phenyl)acetamide], the IC50 in test [1] is over 500 nM. Moreover, at RORγ LBD, the “RORγ ligand binding assay: % inhibition @1 μM” value amounted to 26% and the “RORγ ligand binding assay: % inhibition @ 10 μM” value is recorded as 0%.

Usually IC50 stands for the concentration needed to halve the response being measured. Broadly, the inhibition is the relative decrease from the control value, in per cent.
